{"source": "patent US10794932B2", "about": "“Biosensor for the detection of a biological target, and method for manufacturing the same” (The Governing Council of The University of Toronto, priority 2016, dated 2020)", "key": {"rmTLR3": {"biological_target": "T1, rmTLR3 (Mus musculus, UniProt Q99MB1)", "T1 construct": "purchased", "T1 sequence (Q99MB1 26-905)": "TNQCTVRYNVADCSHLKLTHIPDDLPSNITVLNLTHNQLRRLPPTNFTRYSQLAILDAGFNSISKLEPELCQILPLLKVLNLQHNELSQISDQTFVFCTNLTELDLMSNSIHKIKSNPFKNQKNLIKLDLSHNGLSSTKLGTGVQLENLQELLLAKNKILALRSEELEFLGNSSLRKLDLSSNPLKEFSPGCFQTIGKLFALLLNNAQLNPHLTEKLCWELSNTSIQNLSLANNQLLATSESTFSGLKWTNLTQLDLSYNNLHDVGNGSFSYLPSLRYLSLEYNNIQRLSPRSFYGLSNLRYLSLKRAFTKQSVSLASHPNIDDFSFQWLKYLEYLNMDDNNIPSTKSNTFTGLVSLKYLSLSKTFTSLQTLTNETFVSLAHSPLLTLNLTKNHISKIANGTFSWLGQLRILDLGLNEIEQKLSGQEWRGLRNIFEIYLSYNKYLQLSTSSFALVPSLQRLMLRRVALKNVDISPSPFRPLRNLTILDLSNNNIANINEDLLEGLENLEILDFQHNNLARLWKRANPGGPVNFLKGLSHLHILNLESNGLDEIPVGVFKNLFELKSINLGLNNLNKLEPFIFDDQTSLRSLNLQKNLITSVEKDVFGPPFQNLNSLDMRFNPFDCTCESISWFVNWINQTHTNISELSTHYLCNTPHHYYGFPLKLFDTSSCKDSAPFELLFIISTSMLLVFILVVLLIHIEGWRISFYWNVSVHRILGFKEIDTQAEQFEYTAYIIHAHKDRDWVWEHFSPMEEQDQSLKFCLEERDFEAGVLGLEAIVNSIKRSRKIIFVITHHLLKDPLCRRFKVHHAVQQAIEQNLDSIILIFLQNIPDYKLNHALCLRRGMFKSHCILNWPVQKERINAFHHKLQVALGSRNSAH", "assay": "Selectivity test, TLR3 sensor, EIS", "type": "binding", "conditions": "10 μM"}, "rmTLR5": {"biological_target": "T2, rmTLR5 (Mus musculus, UniProt Q9JLF7)", "T2 construct": "purchased", "T2 sequence (Q9JLF7 27-859)": "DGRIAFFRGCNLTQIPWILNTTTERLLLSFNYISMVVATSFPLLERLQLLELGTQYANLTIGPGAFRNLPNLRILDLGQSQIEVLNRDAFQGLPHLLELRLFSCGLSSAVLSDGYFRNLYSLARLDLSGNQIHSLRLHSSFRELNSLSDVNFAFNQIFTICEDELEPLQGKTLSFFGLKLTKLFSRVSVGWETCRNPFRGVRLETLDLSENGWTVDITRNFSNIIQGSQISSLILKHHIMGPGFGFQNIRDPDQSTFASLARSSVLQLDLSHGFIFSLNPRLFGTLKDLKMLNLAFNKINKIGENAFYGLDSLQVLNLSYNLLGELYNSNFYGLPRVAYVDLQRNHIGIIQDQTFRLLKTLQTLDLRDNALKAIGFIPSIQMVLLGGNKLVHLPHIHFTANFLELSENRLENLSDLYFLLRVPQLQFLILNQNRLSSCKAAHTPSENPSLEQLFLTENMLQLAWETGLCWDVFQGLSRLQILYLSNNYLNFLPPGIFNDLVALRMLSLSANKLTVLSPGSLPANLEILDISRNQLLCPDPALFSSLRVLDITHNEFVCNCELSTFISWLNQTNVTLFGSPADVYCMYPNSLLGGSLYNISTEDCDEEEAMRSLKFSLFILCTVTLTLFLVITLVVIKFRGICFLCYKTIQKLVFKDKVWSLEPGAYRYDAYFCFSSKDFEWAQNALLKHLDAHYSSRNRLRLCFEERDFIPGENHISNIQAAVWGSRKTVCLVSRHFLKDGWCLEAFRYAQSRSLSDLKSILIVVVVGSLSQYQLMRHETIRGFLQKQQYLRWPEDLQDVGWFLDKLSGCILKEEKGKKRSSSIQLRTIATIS", "assay": "Selectivity test, TLR5 sensor, EIS", "type": "binding", "conditions": "10 μM", "procedure": "TLR sensors were prepared using fresh, cleaned gold electrodes. The electrodes were immersed in a 2 mM 1-lipoic acid n-hydroxysuccinimide ester (LPA) ethanol solution for 48 hours at 277 K. The electrodes were then rinsed thoroughly using absolute ethanol and blown dry under nitrogen before incubation in 200 μg/ml rmTLR1, 200 μg/ml rmTLR2 and 200 μg/ml ‘rmTLR1 and 2’ mixture for 72 hours at 277 K. The rmTLR1 and 2 mixture was prepared by mixing 200 μg/ml rmTLR1 and 200 μg/ml rmTLR2 with a volume ratio of 1:1. The final concentration of each component was 100 μg/ml and the total concentration of the combined TLR protein content was 200 μg/ml. Following the supplier's recommended conditions, all TLRs were prepared in PBS buffer (pH˜7.4). The electrodes were rinsed with an excess volume of Milli-Q water and blown dry under nitrogen. An ethanolamine-tris buffer solution was prepared by dissolving 1.2 g of ethanolamine and 0.121 g of Tris base in 20 mL of water, the pH was adjusted to 8.4 using hydrochloric acid. […]\nAll electrochemical measurements were carried out using a cell with a three-electrode configuration in an enclosed Faraday cage. […] The experimental EIS curves were evaluated to determine the film resistance using ZSimpWin 2.0 software. […]"}}, "data": [{"substance": "Pam3CSK4", "values": [{"measurement": "electrochemical response (selectivity test)", "setting": "rmTLR3", "value": "slight signal variations"}, {"measurement": "electrochemical response (selectivity test)", "setting": "rmTLR5", "value": "slight signal variations"}]}]}
